Source: PubChem BioAssay (NCI)
Where “and” joins values, the source holds several entries; their conditions need not be identical. Equal entries are not always repeated.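 All cell lines were grown in 96-well plates and treated with compound for 48 hours. At the GI50, growth is halved. TGI: concentration producing complete growth inhibition.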

Legend:
Assay in all cases: growth of human tumour cells (NCI), 48 h
[1] = tested on: LXFL 529 NSCLC
[2] = tested on: XF 498 CNS
[3] = tested on: DMS 114 small cell lung
[4] = tested on: DMS 273 small cell lung
[5] = tested on: KM20L2 colon
[6] = tested on: DLD-1 colon
[7] = tested on: M19-MEL melanoma
[8] = tested on: HOP-18 NSCLC
[9] = tested on: SNB-78 CNS
[10] = tested on: MDA-MB-231 breast
[11] = tested on: MCF7 breast
[12] = tested on: PC-3 prostate
[13] = tested on: T-47D breast
[14] = tested on: NCI/ADR-RES ovarian

In the case of `Cc1nc2ccncc2[nH]1`, the TGI [1] is reported as > 100 µM, the TGI [2] is reported as > 100 µM and the TGI [3] is reported as > 100 µM. The TGI [4] was > 100 µM, the TGI [5] was > 100 µM and the TGI [6] was > 100 µM. The TGI [7] was > 100 µM.
`CC(C)(C)OC(=O)N[C@H]1CC(=O)c2ccccc2N(CC(=O)O)C1=O` was tested, and the TGI [1] was > 100 µM, the TGI [8] was > 100 µM and the TGI [3] was > 100 µM. The TGI [4] was > 100 µM, the TGI [5] was > 100 µM and the TGI [6] was > 100 µM. The TGI [7] was > 100 µM.
`CCOC(=O)C1=C(C)N(NC(N)=O)C2(N)N(NC(N)=O)C(C)=C(C(=O)OCC)C12C#N` (centres undefined) was tested, and the TGI [1] was > 100 µM, the TGI [2] was > 100 µM and the TGI [3] was > 100 µM. For the same molecule, the TGI [4] was > 100 µM, the TGI [5] was > 100 µM and the TGI [6] was > 100 µM. The TGI [7] was > 100 µM.
`CC(C)(C)C1=NO[C@H]2[C@@H](NC(=O)c3ccccc3)CC[C@@H]12` was tested, and the TGI [1] was > 100 µM, the TGI [2] was > 100 µM and the TGI [3] was > 100 µM. The TGI [9] was > 100 µM, the TGI [5] was > 100 µM and the TGI [6] was > 100 µM. The TGI [7] was > 100 µM.
For `Cc1ccc(-n2nc(C(OC3OC(CO)C(O)C(O)C3O)C(O)CO)c3nc4cc(C)c(C)cc4nc32)cc1` (centres undefined), the TGI [1] was > 100 µM, the TGI [2] was > 100 µM and the TGI [3] was > 100 µM. The TGI [9] was > 100 µM, the TGI [5] was > 100 µM and the TGI [6] was > 100 µM. For the same molecule, the TGI [7] was > 100 µM.
In the case of `N#Cc1c(-c2ccccc2)c(-c2ccccc2)cc2c(=O)c3ccc(Cl)cc3[nH]c12`, the TGI [1] is reported as > 100 µM, the TGI [8] is reported as > 100 µM and the TGI [2] is reported as > 100 µM. The TGI [4] was > 100 µM, the TGI [5] was > 100 µM and the TGI [6] was > 100 µM. The TGI [7] was > 100 µM.
For `COc1ccc(/C=C/C(=O)c2c(-c3ccccc3)nn(C)c(=O)c2N2CCCCC2)cc1`, the TGI [1] was 98.8 µM, the TGI [8] was 73.9 µM and the TGI [3] was 78.4 µM. The TGI [4] was > 100 µM, the TGI [5] was 33.8 µM and the TGI [6] was 82.6 µM. The TGI [7] was 79.3 µM.
In the case of `Cc1nc2sccn2c1C(=O)NNC(N)=S`, the TGI [1] is reported as > 100 µM, the TGI [8] is reported as > 100 µM and the TGI [3] is reported as > 100 µM. The TGI [4] was > 100 µM, the TGI [5] was > 100 µM and the TGI [6] was > 100 µM.
With `COS(=O)c1cc(Cl)cc(Cl)c1OC(=O)CSSCC(=O)Oc1c(Cl)cc(Cl)cc1S(=O)OC` (centres undefined) the TGI [1] was 47.6 µM, the TGI [8] was > 100 µM and the TGI [3] was 35.3 µM. It also gave a TGI [4] of 32.7 µM, a TGI [9] of 76.2 µM and a TGI [5] of 67.2 µM. For the same molecule, the TGI [6] was 40.7 µM and the TGI [7] was 57.7 µM.
Molecule `C=C1C(=O)O[C@@H]2C[C@@]3(C)[C@H](O)CCC(=C)[C@@H]3C[C@H]12` has a TGI [1] of 12.8 µM, a TGI [2] of 9.74 µM and a TGI [3] of 42.2 µM. It also gave a TGI [4] of 27.4 µM, a TGI [9] of 27.8 µM and a TGI [5] of 20.3 µM. For the same molecule, the TGI [6] was 16.5 µM and the TGI [7] was 32.9 µM.
For `C1CN2CCO[SiH](O1)OCC2`, the TGI [1] was > 100 µM, the TGI [8] was > 100 µM and the TGI [3] was > 100 µM. For the same molecule, the TGI [4] was > 100 µM, the TGI [9] was > 100 µM and the TGI [5] was > 100 µM. The TGI [6] was > 100 µM and the TGI [7] was > 100 µM.
In the case of `CCc1c(OC(C)=O)c2c(NC3OC(COC(C)=O)C(OC(C)=O)C(OC(C)=O)C3OC(C)=O)nc(SC)nc2oc1=O` (centres undefined), the TGI [1] is reported as > 100 µM, the TGI [8] is reported as > 100 µM and the TGI [2] is reported as > 100 µM. The TGI [3] was > 100 µM, the TGI [9] was > 100 µM and the TGI [5] was > 100 µM. For the same molecule, the TGI [6] was > 100 µM and the TGI [7] was > 100 µM.
`O=C1OC(=O)c2c1nc1ccccc1c2-c1ccccc1` was tested, and the TGI [1] was > 100 µM, the TGI [8] was > 100 µM and the TGI [3] was > 100 µM. For the same molecule, the TGI [4] was > 100 µM, the TGI [9] was > 100 µM and the TGI [5] was > 100 µM. The TGI [6] was > 100 µM and the TGI [7] was > 100 µM.
Work on `O=C(Nc1ccccc1C(=O)NC(=O)c1ccccc1NC(=O)c1ccccc1)c1ccccc1` yielded a TGI [8] of 17.9 µM, a TGI [2] of 4.38 µM and a TGI [3] of 9.74 µM. It also gave a TGI [4] of 7.78 µM, a TGI [5] of 15.6 µM and a TGI [6] of 29.7 µM.
In the case of `CC[n+]1c(-c2ccccc2)c2cc(N)ccc2c2ccc(N)cc21`, the GI50 [10] is reported as 2.11 µM, the TGI [10] is reported as 39.3 µM and 37.3 µM and the TGI [1] is reported as 2.94 µM. It also gave a TGI [8] of 18.3 µM, a TGI [3] of 10.1 µM and a TGI [4] of 10.7 µM. The GI50 [11] was 1.07 µM, the TGI [11] was 12.9 µM and 15.3 µM and the GI50 [12] was 1.97 µM. For the same molecule, the TGI [12] was 17.5 µM and 26.5 µM, the GI50 [13] was 0.323 µM and the TGI [13] was 2.91 µM and 15 µM. For the same molecule, the TGI [14] was > 100 µM, the TGI [5] was 25.9 µM and the TGI [7] was 10.5 µM.
Molecule `N#CC(C(=O)Nc1ccccc1)C1=C(Cl)C(=O)c2ccccc2C1=O` (centres undefined) has a TGI [1] of 35.5 µM, a TGI [8] of 22.7 µM and a TGI [2] of 30.3 µM. For the same molecule, the TGI [3] was 41.7 µM, the TGI [9] was 45.9 µM and the TGI [5] was 48.9 µM. The TGI [6] was 40.2 µM and the TGI [7] was 21.8 µM.
`Cc1ccc(S(=O)(=O)Nc2ccccc2C(C)(C)C)cc1` gave a TGI [1] of 78.1 µM, a TGI [2] of 44.8 µM and a TGI [3] of 60.4 µM. For the same molecule, the TGI [4] was 38.5 µM, the TGI [9] was > 100 µM and the TGI [5] was 36.7 µM. For the same molecule, the TGI [6] was > 100 µM and the TGI [7] was 82.3 µM.
`O=C1C2C(C(=O)N1Cc1ccccc1)N(Cc1ccccc1)C(=O)N2Cc1ccccc1` (centres undefined) was tested, and the TGI [1] was > 100 µM, the TGI [2] was > 100 µM and the TGI [3] was > 100 µM. The TGI [9] was > 100 µM, the TGI [5] was > 100 µM and the TGI [6] was > 100 µM. The TGI [7] was > 100 µM.
In the case of `CS(=O)(=O)OCCN1CCN(C(=O)c2ccc(Cl)c3c(Nc4ccc(S(=O)(=O)N=C(N)N)cc4)c4ccccc4nc23)CC1`, the TGI [2] is reported as > 100 µM, the TGI [3] is reported as > 100 µM and the TGI [4] is reported as > 100 µM. For the same molecule, the TGI [5] was > 100 µM, the TGI [6] was > 100 µM and the TGI [7] was > 100 µM.
In the case of `CCOC(=O)C[C@@]12CCCN[C@]1(C)CCc1ccccc12`, the TGI [1] is reported as > 100 µM, the TGI [8] is reported as > 100 µM and the TGI [2] is reported as > 100 µM. The TGI [9] was > 100 µM, the TGI [5] was > 100 µM and the TGI [6] was > 100 µM. The TGI [7] was > 100 µM.
With `CCC(Oc1ccc(OC)c2c1C(=O)CCC2)C(=O)O` (centres undefined) the TGI [1] was > 100 µM, the TGI [2] was > 100 µM and the TGI [3] was > 100 µM. The TGI [4] was > 100 µM, the TGI [9] was > 100 µM and the TGI [6] was > 100 µM. For the same molecule, the TGI [7] was > 100 µM.
